Data as given in patent publication US6787569B1, “Therapeutic guanidines” (Cambridge NeuroScience, Inc., priority 1994, dated 2004).
Where a name gives a salt, the structure may show the parent alone.

What follows are compounds tested on depolarization-induced 3H-glutamate release from brain nerve terminals (assay: Inhibition of 3H-glutamate release, high [K+] depolarization, rapid superfusion of synaptosomes). Settings: 0.1 μM compound, rat brain synaptosomes.
Type: biochemical

Compound	% Inhibition of ^3H-Glu Rel @ 0.1 μM [%]
CCC(C)c1ccc(N(Cc2ccc(C(C)(C)C)cc2)C(=N)Nc2ccc(Cl)cc2)cc1.Cl (stereo not shown) [Example 86, N-(4-sec-Butylphenyl)-N-(4-tert-butylbenzyl)-N′-(4-chlorophenyl)guanidine.HCl]	16

Same assay, conditions: 0.3 μM compound, rat brain synaptosomes

Compound	% Inhibition of ^3H-Glu Rel @ 0.3 μM [%]
CC(Cc1ccc(Cl)cc1)NC(=N)Nc1ccc2c3c(cccc13)CC2.Cl (stereo not shown) [Example 40, N-(5-Acenaphthyl)-N′-(1-methyl-2-(4-chlorophenyl)ethyl)guanidine.HCl]	46
CCCCCN(C(=N)Nc1ccc(C(C)CC)cc1)c1ccc(C(C)CC)cc1.Cl (stereo not shown) [Example 46, N,N′-(sec-Butylphenyl)-N′-(n-pentyl)guanidine.HCl]	65
CCC(C)c1ccc(N(Cc2ccc(C(C)(C)C)cc2)C(=N)NN2CCOCC2)cc1.Cl (stereo not shown) [Example 75, N-(4-sec-Butylphenyl)-N-(4-tert-butylbenzyl)-N′-(4-morpholinyl)guanidine.HCl]	42
CCCCOc1ccc(N(Cc2ccc(C(C)(C)C)cc2)C(=N)NC2CCNCC2)cc1.Cl [Example 77, N-(4-Butoxyphenyl)-N-(4-tert-butylbenzyl)-N′-(4-piperidinyl)guanidine.HCl]	44
CCC(C)c1ccc(N(Cc2ccc(C(C)(C)C)cc2)C(=N)N2CCC(Cc3ccccc3)CC2)cc1.CS(=O)(=O)O (stereo not shown) [Example 78]	22
CCC(C)c1ccc(N(Cc2ccc(C(C)(C)C)cc2)C(=N)N2CCc3ccccc3C2)cc1.Cl (stereo not shown) [Example 80]	68
CCC(C)c1ccc(N(Cc2ccc(C(C)(C)C)cc2)C(=N)NN2C(C)COCC2C)cc1.Cl (stereo not shown) [Example 82, N-(4-sec-Butylphenyl)-N-(4-tert-butylbenzyl)-N′-(3,5-dimethyl-4-morpholinyl)guanidine.HCl]	60
CCC(C)c1ccc(N(C)C(=N)N(Cc2ccc(C(C)(C)C)cc2)c2ccc(C(C)(C)C)cc2)cc1.Cl (stereo not shown) [Example 83, N-(4-tert-Butylphenyl)-N-(4-tert-butylbenzyl)-N′-(4-sec-butylphenyl)-N′-(methyl)guanidine.HCl]	31
CCC(C)c1ccc(N(Cc2ccc(C(C)(C)C)cc2)C(=N)Nc2ccccc2)cc1.Cl (stereo not shown) [Example 85, N-(4-sec-Butylphenyl)-N-(4-tert-butylbenzyl)-N′-(phenyl)guanidine.HCl]	55
CCC(C)c1ccc(N(Cc2ccc(C(C)(C)C)cc2)C(=N)Nc2ccc(Cl)cc2)cc1.Cl (stereo not shown) [Example 86, N-(4-sec-Butylphenyl)-N-(4-tert-butylbenzyl)-N′-(4-chlorophenyl)guanidine.HCl]	45
CCCCOc1ccc(N(Cc2ccc(C(C)(C)C)cc2)C(=N)Nc2ccccc2)cc1.Cl [Example 87, N-(4-Butoxylphenyl)-N-(4-tert-butylbenzyl)-N′-(phenyl)guanidine.HCl]	36
CCC(C)c1ccc(N(Cc2ccc(C(C)(C)C)cc2)C(=N)N(C)c2ccccc2)cc1.Cl (stereo not shown) [Example 88, N-(4-sec-Butylphenyl)-N-(4-tert-butylbenzyl)-N′-(phenyl)-N′-methylguanidine.HCl]	77

Same assay, conditions: 1 μM compound, rat brain synaptosomes

Compound	% Inhibition of ^3H-Glu Rel @ 1 μM [%]
CS(=O)(=O)O.N=C(Nc1ccc2c3c(cccc13)CC2)N1CCCc2ccccc21 [Example 7, N-(5-Acenaphthyl)-N′-(1,2,3,4-tetrahydroquinolinyl)guanidine.mesylate]	20
Br.N=C(Nc1cccc(-c2ccccc2)c1)Nc1cccc(-c2ccccc2)c1 [Example 30, N,N′-Bis(3-biphenyl)guanidine.HBr]	25
Br.CC(C)(C)c1cccc(NC(=N)Nc2cccc(C(C)(C)C)c2)c1 [Example 31, N,N′-Di-(3-tert-butylphenyl)guanidine.HBr]	24
Br.CCC(C)c1cccc(NC(=N)Nc2cccc(C(C)CC)c2)c1 (stereo not shown) [Example 34, N,N′-Bis-(3-sec-butylphenyl)guanidine.HBr]	63
Br.CN(C(=N)Nc1ccc(C(C)(C)C)cc1)c1ccc(C(C)(C)C)cc1 [Example 35, N,N′-Bis(4-tert-butylphenyl)-N-methylguanidine.HBr]	61
CC(Cc1ccc(Cl)cc1)NC(=N)Nc1ccc2c3c(cccc13)CC2.Cl (stereo not shown) [Example 40, N-(5-Acenaphthyl)-N′-(1-methyl-2-(4-chlorophenyl)ethyl)guanidine.HCl]	64
Cl.N=C(Nc1ccc2c3c(cccc13)CC2)NC(Cc1ccccc1)c1ccccc1 (stereo not shown) [Example 41, N-(5-Acenaphthyl)-N′-(1,2-diphenylethyl)guanidine.HCl]	52
CCCCCN(C(=N)Nc1ccc(C(C)CC)cc1)c1ccc(C(C)CC)cc1.Cl (stereo not shown) [Example 46, N,N′-(sec-Butylphenyl)-N′-(n-pentyl)guanidine.HCl]	100
CC(C)(C)c1ccc(CN(C(=N)N)c2cccc3ccccc23)cc1.Cl [Example 47, N-(1-Naphthyl)-N-4(tert-butylbenzyl)guanidine.HCl]	40
Cl.N=C(N)N(Cc1cccc(Oc2ccccc2)c1)c1ccc2c3c(cccc13)CC2 [Example 53, N-(5-Acenaphthyl)-N-(3-phenoxybenzyl)guanidine.HCl]	37
Cl.N=C(N)N(Cc1ccc(I)cc1)c1ccc2c3c(cccc13)CC2 [Example 58, N-(5-Acenaphthyl)-N-(4-iodobenzyl)guanidine.HCl]	43
N=C(N)N(Cc1ccc(OC(F)(F)F)cc1)c1ccc2c3c(cccc13)CC2 [Example 59, N-(5-Acenaphthyl)-N-(4-trifluaromethoxybenzyl)guanidine.HCl]	44
CCC(C)c1cccc(N(Cc2ccc(C(C)(C)C)cc2)C(=N)N)c1.Cl (stereo not shown) [Example 62, N-(3-sec-Butylphenyl)-N-(4-tert-butylbenzyl)guanidine.HCl]	22
CC(C)(C)c1ccc(CN(C(=N)N)c2cccc(C(C)(C)C)c2)cc1.Cl [Example 63, N-(3-tert-Butylphenyl)-N-(4-tert-butylbenzyl)guanidine.HCl]	40
CCCCCOc1cccc(N(Cc2ccc(C(C)(C)C)cc2)C(=N)N)c1.Cl [Example 64, N-(3-Pentoxyphenyl)-N-(4-tert-butylbenzyl)guanidine.HCl]	41
Cl.N=C(N)N(Cc1ccc(OCc2ccccc2)cc1)c1ccc2c3c(cccc13)CC2 [Example 65, N-(5-Acenaphthyl)-N-(4-benzyloxybenzyl)guanidine.HCl]	42
CCC(C)c1ccc(N(Cc2ccc(OCc3ccccc3)cc2)C(=N)N)cc1.Cl (stereo not shown) [Example 66, N-(4-sec-Butylphenyl)-N-(4-benzyloxybenzyl)guanidine.HCl]	54
Cl.N=C(N)N(Cc1ccc(OCc2ccccc2)cc1)c1ccc(OCc2ccccc2)cc1 [Example 67, N-(4-Benzyloxyphenyl)-N-(4-benzyloxybenzyl)guanidine.HCl]	36
Cl.N=C(N)N(Cc1cccc(OCc2ccccc2)c1)c1ccc2c3c(cccc13)CC2 [Example 68, N-(5-Acenaphthyl)-N-(3-benzyloxybenzyl)guanidine.HCl]	76
CCC(C)c1ccc(N(C)C(=N)N(Cc2ccc(C(C)(C)C)cc2)c2ccc(C(C)(C)C)cc2)cc1.Cl (stereo not shown) [Example 83, N-(4-tert-Butylphenyl)-N-(4-tert-butylbenzyl)-N′-(4-sec-butylphenyl)-N′-(methyl)guanidine.HCl]	63
CCC(C)c1ccc(N(C)C(=N)N(Cc2ccc(C(C)(C)C)cc2)c2ccc(C(C)CC)cc2)cc1.Cl (stereo not shown) [Example 84, N-(4-sec-Butylphenyl)-N-(4-tert-butylbenzyl)-N′-(4-sec-butylphenyl)-N′-(methyl)guanidine.HCl]	37
CCC(C)c1ccc(N(Cc2ccc(C(C)(C)C)cc2)C(=N)Nc2ccccc2)cc1.Cl (stereo not shown) [Example 85, N-(4-sec-Butylphenyl)-N-(4-tert-butylbenzyl)-N′-(phenyl)guanidine.HCl]	100

Same assay, conditions: 1 μM compound, rat brain synaptosomes, 1 µM

Compound	% Inhibition of ^3H-Glu Rel @ 1 μM [%]
Br.CN(C(=N)N(C)c1ccc(C(C)(C)C)cc1)c1ccc(C(C)(C)C)cc1 [Example 36, N,N′-Bis(4-tert-butylphenyl)-N,N′-methylguanidine.HBr]	67

Same assay, conditions: 3 μM compound, rat brain synaptosomes

Compound	% Inhibition of ^3H-Glu Rel @ 3 μM [%]
CS(=O)(=O)O.N=C(Nc1ccc2c3c(cccc13)CC2)N1CCCc2ccccc21 [Example 7, N-(5-Acenaphthyl)-N′-(1,2,3,4-tetrahydroquinolinyl)guanidine.mesylate]	16
